Source: PMC9603181, “RNA-Dependent RNA Polymerase of the Second Human Pegivirus Exhibits a High-Fidelity Feature” (Microbiology Spectrum, 2022)

Tests used:
Type in all cases: biochemical
[1] = target: T1, HPgV-2 NS5B (HPgV-2 RdRp) (Human hepegivirus, UniProt A0A2L0ARU6); assay: two-step single-nucleotide-incorporation assay, time course, urea-PAGE, Stain-All; details: T30/pGG, CTP 500 uM as only step 2 substrate, Mg2+/Mn2+, pH 6.5, 30 C
T1 construct: NS5B residues 1-551 (QSYN to GASR) of the genome polyprotein, C-terminal truncation, C-terminal His6 tag kept, pET-26b, E. coli BL21(DE3)

HCV NS5B (HCV RdRp) [2] = target: T2, HCV NS5B (HCV RdRp) (Orthohepacivirus hominis, UniProt A0A140D8J5); assay: as above; details: T30/pGG, CTP 500 uM as only step 2 substrate, no Mn2+, pH 6.5, 30 C
T2 construct: NS5B residues 1-570 (SMSY to ARFR) of the genome polyprotein, C-terminal truncation, C-terminal His6 tag kept, pET-26b, E. coli BL21(DE3)

HCV NS5B (HCV RdRp) [3] = target: T2, HCV NS5B (HCV RdRp); assay: two-step single-nucleotide-incorporation assay, urea-PAGE, Stain-All; details: T32 RNA template, pGG primer, pH 6.5, 30 C; sof-TP dose response from 50 uM; UTP analogue, chain terminator

Structure (SMILES)	two-step single-nucleotide-incorporation assay, time course, urea-PAGE, Stain-Al [1]	two-step single-nucleotide-incorporation assay, time course, urea-PAGE, Stain-Al (HCV NS5B (HCV RdRp) [2])	two-step single-nucleotide-incorporation assay, urea-PAGE, Stain-All (HCV NS5B (HCV RdRp) [3])
Nc1ccn([C@@H]2O[C@H](COP(=O)(O)OP(=O)(O)OP(=O)(O)O)[C@@H](O)[C@H]2O)c(=O)n1 [CTP]	no significant difference in the synthesis of the correct P10 between HCV and HPgV-2 NS5B	no significant difference in the synthesis of the correct P10 between HCV and HPgV-2 NS5B	–
C[C@@]1(F)[C@H](O)[C@@H](COP(=O)(O)OP(=O)(O)OP(=O)(O)O)O[C@H]1n1ccc(=O)[nH]c1=O [PSI-7409]	–	–	a clear P9S band was observed in the presence of HCV NS5B
